Measurements from patent US20240269214A1, “SUBSTANCE HAVING HIGH ACTIVITY AND HIGH SAFETY, PREPARATION METHOD THEREFOR, AND APPLICATION THEREOF IN DRUG” (priority 2021, published 2024).

Key:
[1] = system: male Japanese white rabbits; test: Inhibition of formation of atherosclerosis in rabbits on high-fat diet (percentage of aortic plaque area); type: in vivo; details: high-fat diet 6 weeks, oils 1.5 g/kg/d, simvastatin 2.0 mg/kg/d, PC group 42.6±9.7%
Excerpt: High fat fortified feed: Each rabbit is fed with 0.5 grams of cholesterol, 2.0 grams of lard, and 20 grams of egg yolk daily.
Feed for 6 weeks according to the above grouping and feeding conditions, and then execute the animals. After the animals are killed, the aorta is removed from the aortic valve orifice to the beginning of the common iliac artery, the aortic wall is cut longitudinally along the midline of the abdomen, fixed with 10% formaldehyde solution, and the distribution map of aortic lesions is drawn according to the aorta. The area of atherosclerotic plaque and the total area of aortic expansion are measured, and the percentage of plaque area is calculated.

[2] = system: male Japanese white rabbits; test: Reversing and ablating atherosclerosis in rabbits with established atherosclerosis model (percentage of aortic plaque area); type: in vivo; details: 6 weeks modelling then 3 months treatment, oils 1.5 g/kg/d, simvastatin 2.0 mg/kg/d, MOD 45.8±9.9%, MBF 59.9±8.9%
Excerpt: Forty-eight 4-month-old male Japanese white rabbits weighing 2.0±0.2 kg were selected and randomly divided into 2 groups, as follows: • Normal diet group (Negative control group, NC): 8 male Japanese white rabbits, fed with basic feed; • Atherosclerosis modeling group (MOD): 40 male Japanese white rabbits, fed with high fat fortified basic diet, and the dose of peanut oil was 1.5 g/kg/d (converted based on adult and animal weight, body surface area and Km factor);
The area of atherosclerotic plaque and the total area of aortic expansion is measured, and the percentage of plaque area is calculated.
Three months later, all animals are euthanized.
After the animals are killed, the aorta is removed from the aortic valve orifice to the beginning of the common iliac artery, the aortic wall is cut longitudinally along the midline of the abdomen, fixed with 10% formaldehyde solution, and the distribution map of aortic lesions is drawn according to the aorta. The area of atherosclerotic plaque and the total area of aortic expansion is measured, and the percentage of plaque area is calculated.

For CCC(C)(C)C(=O)O[C@H]1C[C@@H](C)C=C2C=C[C@H](C)[C@H](CC[C@@H]3C[C@@H](O)CC(=O)O3)[C@H]21 [simvastatin], the “Plaque area (percentage of atherosclerotic plaque in aortic area)” value [1] was 20.2±4.2% and the “Plaque area (percentage of atherosclerotic plaque in aortic area)” value [2] was 47.1±8.3%.
